Key:
[1] = target: human vasopressin V1b receptor (Homo sapiens (Human), UniProt P47901); assay: biochemical
[2] = target: human vasopressin V1a receptor (Homo sapiens (Human), UniProt P37288); assay: Vasopressin V1a receptor binding assay; details: selectivity quotient, human V1a vs human V1b
Method: The test substances were dissolved in a concentration of 5 mM M in DMSO. Further dilution of these DMSO solutions took place as described for V1b.
The membrane pellet was again homogenized in a High-Pressure-Homogenizer, Polytec 50K at 1500 PSI (Heinemann, Germany) and subsequently taken up in 50 mM Tris-HCl, pH 7.4, homogenized and stored in aliquots frozen in liquid nitrogen at −190° C.
The incubation buffer was: 50 mM Tris, 10 mM MgCl2, 0.1% BSA, pH 7.4.
Duplicate determinations were carried out.
After incubation (60 minutes at room temperature), the samples were processed as described for V1b.
The binding parameters were calculated by nonlinear regression in SAS.

Chain of human vasopressin V1a receptor (P37288 whole entry): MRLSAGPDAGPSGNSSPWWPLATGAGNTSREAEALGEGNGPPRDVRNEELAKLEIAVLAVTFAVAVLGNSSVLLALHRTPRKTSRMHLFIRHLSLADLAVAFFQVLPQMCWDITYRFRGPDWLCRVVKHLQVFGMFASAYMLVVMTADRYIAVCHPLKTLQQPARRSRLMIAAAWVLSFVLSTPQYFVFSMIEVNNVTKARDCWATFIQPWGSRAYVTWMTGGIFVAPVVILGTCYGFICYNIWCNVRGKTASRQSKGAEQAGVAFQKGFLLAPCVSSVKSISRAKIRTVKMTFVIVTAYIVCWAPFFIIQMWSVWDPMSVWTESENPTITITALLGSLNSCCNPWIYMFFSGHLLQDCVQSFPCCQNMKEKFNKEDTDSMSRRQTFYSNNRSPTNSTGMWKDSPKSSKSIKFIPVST
Chain of human vasopressin V1b receptor (P47901 whole entry): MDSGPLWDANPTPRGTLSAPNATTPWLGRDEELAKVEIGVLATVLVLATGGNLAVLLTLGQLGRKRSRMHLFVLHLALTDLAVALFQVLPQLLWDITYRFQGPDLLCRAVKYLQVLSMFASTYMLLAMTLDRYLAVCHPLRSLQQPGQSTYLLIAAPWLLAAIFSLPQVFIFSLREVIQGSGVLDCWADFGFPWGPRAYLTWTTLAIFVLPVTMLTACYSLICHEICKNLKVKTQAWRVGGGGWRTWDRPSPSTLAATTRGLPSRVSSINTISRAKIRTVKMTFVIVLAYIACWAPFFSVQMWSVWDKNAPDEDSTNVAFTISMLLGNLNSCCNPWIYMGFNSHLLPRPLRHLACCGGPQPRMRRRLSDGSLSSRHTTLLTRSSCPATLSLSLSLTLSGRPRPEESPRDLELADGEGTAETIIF

Compound	Ki [1] [µM]	Ki(h-V1a)/Ki(h-V1b) [2]
CC(C)NC(=O)Cn1c(-c2cccc(Cl)c2)nc2ccc([C@H]3C[C@@H](CN4CCCC(C#N)C4)C3)cc2c1=O (relative stereo) [Example 14, cis-2-[2-(3-Chlorophenyl)-6-[3-[(3-cyano-1-piperidyl)methyl]cyclobutyl]-4-oxo-quinazolin-3-yl]-N-isopropyl-acetamide]	0.001 to 0.01	+++ (>75)
CC(C)NC(=O)Cn1c(-c2cccc(Cl)c2)nc2ccc([C@H]3C[C@@H](CN4C5CCC4CC(O)C5)C3)cc2c1=O (relative stereo) [Example 23, cis-2-[2-(3-Chlorophenyl)-6-[3-[(3-hydroxy-8-azabicyclo[3.2.1]octan-8-yl)methyl]cyclobutyl]-4-oxo-quinazolin-3-yl]-N-isopropyl-acetamide]	0.001 to 0.01	+++ (>75)
CC(C)NC(=O)Cn1c(-c2cccc(Cl)c2)nc2ccc([C@H]3C[C@@H](CN4CCCC(F)C4)C3)cc2c1=O (relative stereo) [Example 39, cis-2-[2-(3-Chlorophenyl)-6-[3-[(3-fluoro-1-piperidyl)methyl]cyclobutyl]-4-oxo-quinazolin-3-yl]-N-isopropyl-acetamide]	0.001 to 0.01	+++ (>75)
CC(C)NC(=O)Cn1c(-c2cccc(Cl)c2)nc2ccc([C@H]3C[C@@H](CN4CC(C)OC(C)C4)C3)cc2c1=O (relative stereo) [Example 43, cis-2-[2-(3-Chlorophenyl)-6-[3-[(2,6-dimethylmorpholin-4-yl)methyl]cyclobutyl]-4-oxo-quinazolin-3-yl]-N-isopropyl-acetamide]	0.01 to 0.1	+++ (>75)
CC(C)NC(=O)Cn1c(-c2cccc(Cl)c2)nc2ccc(C3=CC(CN4CCCCC4)C3)cc2c1=O (stereo not drawn) [Example 1, 2-(2-(3-Chlorophenyl)-4-oxo-6-(3-(piperidin-1-ylmethyl)cyclobut-1-en-1-yl)quinazolin-3(4H)-yl)-N-isopropylacetamide]	0.01 to 0.1	+++ (>75)
CC(C)NC(=O)Cn1c(-c2cccc(Cl)c2)nc2ccc([C@H]3C[C@@H](CN4CCCCC4)C3)cc2c1=O [Example 2a, cis-2-[2-(3-chlorophenyl)-4-oxo-6-[3-(1-piperidylmethyl)cyclobutyl]quinazolin-3-yl]-N-isopropyl-acetamide]	0.001 to 0.01	+++ (>75)
CC(C)NC(=O)Cn1c(-c2cccc(Cl)c2)nc2ccc([C@H]3C[C@H](CN4CCCCC4)C3)cc2c1=O [Example 2b, trans-2-[2-(3-chlorophenyl)-4-oxo-6-[3-(1-piperidylmethyl)cyclobutyl]quinazolin-3-yl]-N-isopropyl-acetamide]	0.01 to 0.1	+++ (>75)
CC(C)NC(=O)Cn1c(-c2cccc(Cl)c2)nc2ccc(C3CC3CCN3CCCCC3)cc2c1=O (stereo not drawn) [Example 3, 2-[2-(3-Chlorophenyl)-4-oxo-6-[2-[2-(1-piperidyl)ethyl]cyclopropyl]quinazolin-3-yl]-N-isopropyl-acetamide]	0.01 to 0.1	++ (25-75)
CC(C)NC(=O)Cn1c(-c2cccc(Cl)c2)nc2ccc(C3CC3CN3CCCCC3)cc2c1=O (stereo not drawn) [Example 4, 2-[2-(3-Chlorophenyl)-4-oxo-6-[2-(1-piperidylmethyl)cyclopropyl]quinazolin-3-yl]-N-isopropyl-acetamide]	0.01 to 0.1	+++ (>75)
CC(C)NC(=O)Cn1c(-c2cccc(Cl)c2)nc2ccc([C@H]3C[C@@H](CN4CCC(C#N)CC4)C3)cc2c1=O [Example 7, Cis-2-[2-(3-Chlorophenyl)-6-[3-[(4-cyano-1-piperidyl)methyl]cyclobutyl]-4-oxo-quinazolin-3-yl]-N-isopropyl-acetamide]	0.01 to 0.1	+++ (>75)
CC(C)NC(=O)Cn1c(-c2cccc(Cl)c2)nc2ccc([C@H]3C[C@@H](CN4CCSCC4)C3)cc2c1=O [Example 8, cis-2-[2-(3-Chlorophenyl)-4-oxo-6-[3-(thiomorpholinomethyl)cyclobutyl]quinazolin-3-yl]-N-isopropyl-acetamide]	< 0.001	+++ (>75)
CC(C)NC(=O)Cn1c(-c2cccc(Cl)c2)nc2ccc([C@H]3C[C@@H](CN4CCCC4)C3)cc2c1=O [Example 9, cis-2-[2-(3-Chlorophenyl)-4-oxo-6-[3-(pyrrolidin-1-ylmethyl)cyclobutyl]quinazolin-3-yl]-N-isopropyl-acetamide]	0.01 to 0.1	+++ (>75)
COC1CCN(C[C@H]2C[C@@H](c3ccc4nc(-c5cccc(Cl)c5)n(CC(=O)NC(C)C)c(=O)c4c3)C2)CC1 [Example 10, cis-2-[2-(3-Chlorophenyl)-6-[3-[(4-methoxy-1-piperidyl)methyl]cyclobutyl]-4-oxo-quinazolin-3-yl]-N-isopropyl-acetamide]	0.001 to 0.01	+++ (>75)
CC(C)NC(=O)Cn1c(-c2cccc(Cl)c2)nc2ccc([C@H]3C[C@@H](CN4CC[C@@H](F)C4)C3)cc2c1=O [Example 11, cis-2-[2-(3-Chlorophenyl)-6-[3-[[(3R)-3-fluoropyrrolidin-1-yl]methyl]cyclobutyl]-4-oxo-quinazolin-3-yl]-N-isopropyl-acetamide]	0.001 to 0.01	+++ (>75)
CC(C)NC(=O)Cn1c(-c2cccc(Cl)c2)nc2ccc([C@H]3C[C@@H](CN4CCC(F)(F)CC4)C3)cc2c1=O [Example 12, cis-2-[2-(3-Chlorophenyl)-6-[3-[(4,4-difluoro-1-piperidyl)methyl]cyclobutyl]-4-oxo-quinazolin-3-yl]-N-isopropyl-acetamide]	0.001 to 0.01	+++ (>75)
CC(C)NC(=O)Cn1c(-c2cccc(Cl)c2)nc2ccc([C@H]3C[C@@H](CN4CCOCC4)C3)cc2c1=O [Example 13, cis-2-[2-(3-Chlorophenyl)-6-[3-(morpholinomethyl)cyclobutyl]-4-oxo-quinazolin-3-yl]-N-isopropyl-acetamide]	0.001 to 0.01	+++ (>75)
CCN(CC)C[C@H]1C[C@@H](c2ccc3nc(-c4cccc(Cl)c4)n(CC(=O)NC(C)C)c(=O)c3c2)C1 [Example 15, cis-2-[2-(3-Chlorophenyl)-6-[3-(diethylaminomethyl)cyclobutyl]-4-oxo-quinazolin-3-yl]-N-isopropyl-acetamide]	0.01 to 0.1	+++ (>75)
CC(C)NC(=O)Cn1c(-c2cccc(Cl)c2)nc2ccc([C@H]3C[C@@H](CN4CC[C@H](F)C4)C3)cc2c1=O [Example 16, cis-2-[2-(3-Chlorophenyl)-6-[3-[ [(3S)-3-fluoropyrrolidin-1-yl]methyl]cyclobutyl]-4-oxo-quinazolin-3-yl]-N-isopropyl-acetamide]	0.001 to 0.01	+++ (>75)
CC(C)NC(=O)Cn1c(-c2cccc(Cl)c2)nc2ccc([C@H]3C[C@@H](CN(C)C)C3)cc2c1=O [Example 17, cis-2-[2-(3-Chlorophenyl)-6-[3-(dimethylaminomethyl)cyclobutyl]-4-oxo-quinazolin-3-yl]-N-isopropyl-acetamide]	0.01 to 0.1	+++ (>75)
CC(C)NC(=O)Cn1c(-c2cccc(Cl)c2)nc2ccc([C@H]3C[C@@H](CN4CC(O)C4)C3)cc2c1=O [Example 40, cis-2-[2-(3-Chlorophenyl)-6-[3-[(3-hydroxyazetidin-1-yl)methyl]cyclobutyl]-4-oxo-quinazolin-3-yl]-N-isopropyl-acetamide]	0.001 to 0.01	
